The source of these data is the NIST ThermoML archive (doi:10.1021/je900381r).

For the series the following is noted: Crystal; DTA.

± gives the expanded uncertainty stated by the source.

In the case of `O=c1cc(-c2ccc(O)c(O)c2)oc2cc(O)cc(O)c12` [5,7,3',4'-tetrahydroxyflavone], the Normal melting temperature was determined as 337.43 ± 1 °C.
